The results in this text go back to ChEMBL document CHEMBL5316367, “Mass Spectrometry-Guided Discovery of Multi-N-Methylated Cyclodecapeptides Auyuittuqamides E-H from Sesquicillium sp. QL0466” (2023).

In brackets after ≈: the same amount, converted by molar mass.

Holding throughout (type): functional
The test system of assay [1] is Staphylococcus aureus. The assay is described as follows: Antimicrobial activity against methicillin-resistant Staphylococcus aureus 11646 assessed as inhibition of bacterial growth by microtiter plate reader assay.
In assay [2] the test system is Escherichia coli. The assay is described as follows: Antimicrobial activity against Escherichia coli ATCC 25922 assessed as inhibition of bacterial growth by microtiter plate reader assay.
The test system of assay [3] is Enterococcus faecium. Put plainly: Antimicrobial activity against vancomycin-sensitive Enterococcus faecium 160119481 assessed as inhibition of bacterial growth by microtiter plate reader assay.
In assay [4] the test system is Staphylococcus aureus. The assay is described as follows: Antimicrobial activity against Staphylococcus aureus ATCC 6538 assessed as inhibition of bacterial growth by microtiter plate reader assay.
The subject of assay [5] is Enterococcus faecium. Put plainly: Antimicrobial activity against vancomycin-resistant Enterococcus faecium 151458137 assessed as inhibition of bacterial growth by microtiter plate reader assay.

In general, MIC refers to the least concentration at which growth counts as inhibited. As for `CC[C@H](C)[C@@H]1NC(=O)CNC(=O)[C@H](CC(C)C)N(C)C(=O)[C@H]([C@@H](C)CC)NC(=O)[C@H]([C@@H](C)O)N(C)C(=O)[C@H](Cc2ccccc2)NC(=O)CNC(=O)[C@@H](CC(C)C)N(C)C(=O)[C@H]([C@@H](C)CC)NC(=O)[C@H](CO)NC1=O`, the MIC in assay [1] was more than 128 µg/mL; in assay [2] it was more than 128 µg/mL; in assay [3], 8 µg/mL (≈ 7.57 µM); in assay [4], 8 µg/mL (≈ 7.57 µM); in assay [5], 8 µg/mL (≈ 7.57 µM).

`NC[C@H]1O[C@H](O[C@H]2[C@H](O)[C@@H](O[C@H]3O[C@H](CO)[C@@H](O)[C@H](N)[C@H]3O)[C@H](N)C[C@@H]2N)[C@H](N)[C@@H](O)[C@@H]1O` [BEKANAMYCIN]: the MIC in assay [2] is 32 µg/mL (≈ 66.2 µM).

For `CC[C@H](C)[C@@H]1NC(=O)[C@H]([C@@H](C)O)N(C)C(=O)[C@H](Cc2ccccc2)NC(=O)CNC(=O)[C@@H](CC(C)C)N(C)C(=O)[C@H](CC(C)C)NC(=O)[C@H](CO)NC(=O)[C@H](CC(C)C)NC(=O)CNC(=O)[C@H](CC(C)C)N(C)C1=O`, the MIC in assay [1] was more than 128 µg/mL; in assay [2] it was more than 128 µg/mL; in assay [3] it was 8 µg/mL (≈ 7.57 µM); in assay [4], 8 µg/mL (≈ 7.57 µM); in assay [5] it was 8 µg/mL (≈ 7.57 µM).

Regarding `CC[C@H](C)[C@@H]1NC(=O)[C@H](CO)NC(=O)[C@H](CC(C)C)NC(=O)CNC(=O)[C@H](CC(C)C)N(C)C(=O)[C@H]([C@@H](C)CC)NC(=O)[C@H]([C@@H](C)O)N(C)C(=O)[C@H](Cc2ccccc2)NC(=O)CNC(=O)[C@@H](CC(C)C)N(C)C1=O`, the MIC in assay [1] was more than 128 µg/mL; in assay [2], more than 128 µg/mL; in assay [3], 8 µg/mL (≈ 7.57 µM); in assay [4] it was 8 µg/mL (≈ 7.57 µM); in assay [5], 8 µg/mL (≈ 7.57 µM).

On to `CC[C@H](C)[C@@H]1NC(=O)CNC(=O)[C@H](CC(C)C)N(C)C(=O)[C@H]([C@@H](C)CC)NC(=O)[C@H]([C@@H](C)O)N(C)C(=O)[C@H](Cc2ccccc2)NC(=O)CNC(=O)[C@@H](CC(C)C)N(C)C(=O)[C@H](CC(C)C)NC(=O)[C@H](CO)NC1=O`, for which the MIC in assay [1] was more than 128 µg/mL; in assay [2], more than 128 µg/mL; in assay [3], 8 µg/mL (≈ 7.57 µM); in assay [4], 8 µg/mL (≈ 7.57 µM); in assay [5], 8 µg/mL (≈ 7.57 µM).
